Results as given in patent publication US20260217697A1, “COMPOUNDS COMPRISING HETEROARYL RINGS AND COMPOSITIONS AND METHODS THEREOF” (lonGen Therapeutics Co., Ltd., priority 2022, published 2026).

Target: T1, hTRPV3 (Homo sapiens, UniProt Q8NET8)
T1 construct: The commercially available plasmid with the full-length cDNA of hTRPV3 (791 aa) (NM_001258205.2); host or cells: HEK293T
T1 sequence (Q8NET8 1-791 isoform Q8NET8-2): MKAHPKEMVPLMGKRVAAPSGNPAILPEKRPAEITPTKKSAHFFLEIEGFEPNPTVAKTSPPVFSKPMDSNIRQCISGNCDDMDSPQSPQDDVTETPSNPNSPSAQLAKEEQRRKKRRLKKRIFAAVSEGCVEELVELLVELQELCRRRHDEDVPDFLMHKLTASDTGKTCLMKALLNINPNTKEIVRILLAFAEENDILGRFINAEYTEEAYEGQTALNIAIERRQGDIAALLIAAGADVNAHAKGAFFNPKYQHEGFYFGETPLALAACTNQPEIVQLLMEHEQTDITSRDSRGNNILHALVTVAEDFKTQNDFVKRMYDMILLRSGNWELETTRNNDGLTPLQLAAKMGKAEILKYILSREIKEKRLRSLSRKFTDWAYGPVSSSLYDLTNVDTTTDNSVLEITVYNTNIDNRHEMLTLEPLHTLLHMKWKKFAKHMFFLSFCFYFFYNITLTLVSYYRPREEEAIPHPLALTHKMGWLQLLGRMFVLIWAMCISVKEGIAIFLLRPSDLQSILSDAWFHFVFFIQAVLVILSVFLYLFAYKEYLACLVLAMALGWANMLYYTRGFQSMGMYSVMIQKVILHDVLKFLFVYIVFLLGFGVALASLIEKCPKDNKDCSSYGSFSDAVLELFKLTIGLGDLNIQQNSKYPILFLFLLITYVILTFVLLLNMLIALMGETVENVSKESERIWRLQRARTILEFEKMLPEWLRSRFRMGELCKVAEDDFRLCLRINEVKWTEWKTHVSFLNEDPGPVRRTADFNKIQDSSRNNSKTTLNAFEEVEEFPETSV
Experiment: Whole-cell patch-clamp recording of hTRPV3 current in transfected HEK293T cells (2-APB induced)
Format: cell-based
Conditions: current induced by 300 μM 2-APB, compounds tested up to 10 μM, room temperature
Procedure, shortened: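 HEK293T cells transiently expressing full-length hTRPV3, recorded by whole-cell patch clamp 18 h post-transfection at room temperature, with 130 mM NaCl/0.3 mM EDTA/3 mM HEPES pH 7.4 on both sides. Holding potential 0 mV; 400-ms steps to +80 and −80 mV every 2 s. Block of 2-APB-evoked current, tested up to 10 μM, fitted to Hill equation for IC50.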

Row | Compound | IC50
1 | COc1ncnc(OC)c1C(=O)Nc1nc2c(s1)C1(COC1)Oc1cc(C(F)(F)F)ccc1-2 [compound 65, 4,6-dimethoxy-N-(7-(trifluoromethyl)spiro[chromeno[4,3-d]thiazole-4,3′-oxetan]-2-yl)pyrimidine-5-carboxamide] | 100 to 1000 nM
2 | COc1ncnc(OC)c1C(=O)Nc1nc2c(s1)C1(CCNCC1)Oc1cc(C(F)(F)F)ccc1-2 [compound 45, 4,6-dimethoxy-N-(7-(trifluoromethyl)spiro[chromeno[4,3-d]thiazole-4,4′-piperidin]-2-yl)pyrimidine-5-carboxamide] | ≥ 10000 nM
3 | COc1ccc2c(c1)-c1nc(NC(=O)c3c(OC)ncnc3OC)sc1CO2 [compound 17, 4,6-dimethoxy-N-(8-methoxy-4H-chromeno[4,3-d]thiazol-2-yl)pyrimidine-5-carboxamide] | ≥ 10000 nM
4 | COc1ncnc(OC)c1C(=O)Nc1nc2c(s1)CCc1ccc(Cl)cc1-2 [compound 3, N-(8-chloro-4,5-dihydronaphtho[1,2-d]thiazol-2-yl)-4,6-dimethoxypyrimidine-5-carboxamide] | 1000 to 10000 nM
5 | COc1ncnc(OC)c1C(=O)Nc1nc2c(s1)CCOc1cc(C(F)(F)F)ccc1-2 [compound 82, 4,6-dimethoxy-N-(8-(trifluoromethyl)-4,5-dihydrobenzo[2,3]oxepino[4,5-d]thiazol-2-yl)pyrimidine-5-carboxamide] | 100 to 1000 nM
6 | CCC1CCC2(CC1)Oc1cc(C(F)(F)F)ccc1-c1nc(NC(=O)c3c(OC)ncnc3OC)sc12 (stereo not shown) [compound 31, N-(4′-ethyl-7-(trifluoromethyl)spiro[chromeno[4,3-d]thiazole-4,1′-cyclohexan]-2-yl)-4,6-dimethoxypyrimidine-5-carboxamide] | 100 to 1000 nM
7 | CCC1(CC)Oc2cc(C(F)(F)F)ccc2-c2nc(NC(=O)c3c(OC)ncnc3OCCOC)sc21 [compound 70, N-(4,4-diethyl-7-(trifluoromethyl)-4H-chromeno[4,3-d]thiazol-2-yl)-4-methoxy-6-(2-methoxyethoxy)pyrimidine-5-carboxamide] | 100 to 1000 nM
8 | COc1ncnc(OC)c1C(=O)Nc1nc2c([se]1)C1(CN(C(=O)OC(C)(C)C)C1)Oc1cc(C(F)(F)F)ccc1-2 [compound 168, tert-butyl 2′-(4,6-dimethoxypyrimidine-5-carboxamido)-7′-(trifluoromethyl)spiro[azetidine-3,4′-chromeno[4,3-d][1,3]selenazole]-1-carboxylate] | 100 to 1000 nM
9 | COc1ncnc(OC)c1C(=O)Nc1nc2c(s1)C1(CN(C(=O)c3ccco3)C1)Oc1cc(C(F)(F)F)ccc1-2 [compound 76, N-(1-(furan-2-carbonyl)-7′-(trifluoromethyl)spiro[azetidine-3,4′-chromeno[4,3-d]thiazol]-2′-yl)-4,6-dimethoxypyrimidine-5-carboxamide] | 1000 to 10000 nM
10 | COc1ncnc(OC)c1C(=O)Nc1nc2c(s1)COc1cc(Br)ccc1-2 [compound 6, N-(7-bromo-4H-chromeno[4,3-d]thiazol-2-yl)-4,6-dimethoxypyrimidine-5-carboxamide] | ≥ 10000 nM
11 | CCC1(CC)Oc2cc(C(F)(F)F)ccc2-c2nc(N(C)C(=O)c3c(OC)ncnc3OC)sc21 [compound 53] | ≥ 10000 nM
12 | COc1ncnc(OC)c1C(=O)Nc1nc2c(s1)C1(CCN(C(C)=O)CC1)Oc1cc(C(F)(F)F)ccc1-2 [compound 64, N-(1′-acetyl-7-(trifluoromethyl)spiro[chromeno[4,3-d]thiazole-4,4′-piperidin]-2-yl)-4,6-dimethoxypyrimidine-5-carboxamide] | 100 to 1000 nM
13 | CCCCCCC1(C)Oc2cc(C(F)(F)F)ccc2-c2nc(NC(=O)c3c(OC)ncnc3OC)sc21 (stereo not shown) [compound 41, N-(4-hexyl-4-methyl-7-(trifluoromethyl)-4H-chromeno[4,3-d]thiazol-2-yl)-4,6-dimethoxypyrimidine-5-carboxamide] | 100 to 1000 nM
14 | COc1ncnc(OC)c1C(=O)Nc1nc2c(s1)C1(CCCN(C(=O)OC(C)(C)C)C1)Oc1cc(C(F)(F)F)ccc1-2 (stereo not shown) [compound 12, tert-butyl 2-(4,6-dimethoxypyrimidine-5-carboxamido)-7-(trifluoromethyl)spiro[chromeno[4,3-d]thiazole-4,3′-piperidine]-1′-carboxylate] | 100 to 1000 nM
15 | CCC1(CC)Oc2ccc(C(F)(F)F)cc2-c2nc(NC(=O)c3c(OC)ncnc3OC)sc21 [compound 83, N-(4,4-diethyl-8-(trifluoromethyl)-4H-chromeno[4,3-d]thiazol-2-yl)-4,6-dimethoxypyrimidine-5-carboxamide] | ≥ 10000 nM
16 | COc1ncnc(OC)c1C(=O)Nc1nc2c(s1)COc1c-2cccc1C(F)(F)F [compound 15, 4,6-dimethoxy-N-(6-(trifluoromethyl)-4H-chromeno[4,3-d]thiazol-2-yl)pyrimidine-5-carboxamide] | ≥ 10000 nM
17 | COc1ncnc(OC)c1C(=O)Nc1nc2c(s1)C1(CCC(C(C)(C)C)CC1)Oc1cc(C(F)(F)F)ccc1-2 (stereo not shown) [compound 18, N-(4′-(tert-butyl)-7-(trifluoromethyl)spiro[chromeno[4,3-d]thiazole-4,1′-cyclohexan]-2-yl)-4,6-dimethoxypyrimidine-5-carboxamide] | 1000 to 10000 nM
18 | CCC1(CC)Oc2cc(Br)ccc2-c2nc(NC(=O)c3c(OC)ncnc3OC)sc21 [compound 49, N-(7-bromo-4,4-diethyl-4H-chromeno[4,3-d]thiazol-2-yl)-4,6-dimethoxypyrimidine-5-carboxamide] | 1000 to 10000 nM
19 | COc1ncnc(OC)c1C(=O)Nc1nc2c(s1)C1(CCN(CC(C)C)CC1)Oc1cc(C(F)(F)F)ccc1-2 [compound 155, N-(1′-isobutyl-7-(trifluoromethyl)spiro[chromeno[4,3-d]thiazole-4,4′-piperidin]-2-yl)-4,6-dimethoxypyrimidine-5-carboxamide] | < 100 nM

Second part, the compound after the results:

Row | IC50 | Compound
20 | ≥ 10000 nM | CCC1(CC)Oc2cc(C(F)(F)F)ccc2-c2nc(NC(=O)c3c(OC)cccc3OC)sc21 [compound 142, N-(4,4-diethyl-7-(trifluoromethyl)-4H-chromeno[4,3-d]thiazol-2-yl)-2,6-dimethoxybenzamide]
21 | < 100 nM | COc1ncnc(OC)c1C(=O)Nc1nc2c(s1)C1(COC1)Oc1cc(C(C)C)ccc1-2 [compound 135, N-(7-isopropylspiro[chromeno[4,3-d]thiazole-4,3′-oxetan]-2-yl)-4,6-dimethoxypyrimidine-5-carboxamide]
22 | 100 to 1000 nM | COc1ncnc(OC)c1C(=O)Nc1nc2c(s1)C1(CN(C(=O)OC(C)(C)C)C1)Oc1cc(C(C)C)ccc1-2 [compound 132, tert-butyl 2′-(4,6-dimethoxypyrimidine-5-carboxamido)-7′-isopropylspiro[azetidine-3,4′-chromeno[4,3-d]thiazole]-1-carboxylate]
23 | 1000 to 10000 nM | COc1ncnc(OC)c1C(=O)Nc1nc2c(s1)C1(CN(CCN(C)C)C1)Oc1cc(C(F)(F)F)ccc1-2 [compound 164, N-(1-(2-(dimethylamino)ethyl)-7′-(trifluoromethyl)spiro[azetidine-3,4′-chromeno[4,3-d]thiazol]-2′-yl)-4,6-dimethoxypyrimidine-5-carboxamide]
24 | < 100 nM | COCCN1CC2(C1)Oc1cc(C(F)(F)F)ccc1-c1nc(NC(=O)c3c(OC)ncnc3OC)sc12 [compound 157, 4,6-dimethoxy-N-(1-(2-methoxyethyl)-7′-(trifluoromethyl)spiro[azetidine-3,4′-chromeno[4,3-d]thiazol]-2′-yl)pyrimidine-5-carboxamide]
25 | 1000 to 10000 nM | COc1ncnc(OC)c1C(=O)Nc1nc2c(s1)-c1ccc(C(F)(F)F)cc1OC21CC[S+]([O-])CC1 (stereo not shown) [compound 95, 4,6-dimethoxy-N-(1′-oxido-7-(trifluoromethyl)-2′,3′,5′,6′-tetrahydrospiro[chromeno[3,4-d]thiazole-4,4′-thiopyran]-2-yl)pyrimidine-5-carboxamide]
26 | 1000 to 10000 nM | COc1ncnc(OC)c1C(=O)Nc1nc2c(s1)COc1ccc(Cl)cc1-2 [compound 86, N-(8-chloro-4H-chromeno[4,3-d]thiazol-2-yl)-4,6-dimethoxypyrimidine-5-carboxamide]
27 | 1000 to 10000 nM | CCC1(CC)Oc2cc(C(F)(F)F)ccc2-c2nc(NCc3c(OC)ncnc3OC)sc21 [compound 110, N-((4,6-dimethoxypyrimidin-5-yl)methyl)-4,4-diethyl-7-(trifluoromethyl)-4H-chromeno[4,3-d]thiazol-2-amine]
28 | ≥ 10000 nM | CCC1(CC)Oc2cc(C(F)(F)F)ccc2-c2nc(NC(=O)c3c[nH]nc3OC)sc21 [compound 94, N-(4,4-diethyl-7-(trifluoromethyl)-4H-chromeno[4,3-d]thiazol-2-yl)-3-methoxy-1H-pyrazole-4-carboxamide]
